Laboratory results published in patent EP0749962B1, “6-substituted-1,2,3,4-tetrahydro-9H-carbazoles and 7-substituted-10H-cyclohepta(7,6-B)indoles” (ELI LILLY AND COMPANY, priority 1995, dated 1996).
Where a name gives a salt, the structure may show the parent alone. Read-outs that look alike come from different tables or passages of the source.

Assays:
[1] = biological target: T1, 5-HT1F receptor (Homo sapiens, UniProt P30939); assay: [3H]5-HT radioligand binding to the cloned 5-HT1F receptor (membranes of transfected Ltk- cells)
T1 construct: expressed in transfected cells; host or cells: Ltk- cells (mouse fibroblasts)
T1 sequence (P30939 1-366): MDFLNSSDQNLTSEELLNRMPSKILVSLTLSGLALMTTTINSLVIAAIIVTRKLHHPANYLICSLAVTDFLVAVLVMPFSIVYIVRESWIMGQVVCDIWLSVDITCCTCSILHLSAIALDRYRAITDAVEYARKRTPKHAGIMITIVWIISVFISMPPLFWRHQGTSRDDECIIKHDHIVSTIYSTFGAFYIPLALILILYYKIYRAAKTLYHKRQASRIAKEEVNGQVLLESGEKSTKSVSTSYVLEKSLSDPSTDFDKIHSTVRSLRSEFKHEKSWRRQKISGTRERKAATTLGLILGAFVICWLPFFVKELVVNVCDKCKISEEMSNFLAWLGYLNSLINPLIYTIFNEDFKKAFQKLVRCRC
Protocol: Membrane Preparation: Membranes were prepared from transfected Ltk- cells which were grown to 100% confluency. The cells were washed twice with phosphate-buffered saline, scraped from the culture dishes into 5 mL of ice-cold phosphate-buffered saline, and centrifuged at 200 x g for 5 minutes at 4°C. The pellet was resuspended in 2.5 mL of ice-cold Tris buffer (20 mM Tris HCl, pH=7.4 at 23°C, 5 mM EDTA) and homogenized with a Wheaton tissue grinder. The lysate was subsequently centrifuged at 200 x g for 5 minutes at 4°C to pellet large fragments which were discarded. The supernatant was collected and centrifuged at 40,000 x g for 20 minutes at 4°C. The pellet resulting from this centrifugation was washed once in ice-cold Tris wash buffer and resuspended in a final buffer containing 50 mM Tris HCl and 0.5 mM EDTA, pH=7.4 at 23°C. Membrane preparations were kept on ice and utilized within two hours for the radioligand binding assays.
Saturation studies were conducted using [^3H]5-HT at 12 different concentrations ranging from 0.5 nM to 100 nM. […] The binding profile of drugs in competition experiments was accomplished using 10-12 concentrations of compound. Incubation times were 30 minutes for both saturation and displacement studies based upon initial investigations which determined equilibrium binding conditions. Nonspecific binding was defined in the presence of 10 µM 5-HT. Binding was initiated by the addition of 50 µL membrane homogenates (10-20 µg). The reaction was terminated by rapid filtration through presoaked (0.5% poylethyleneimine) filters using 48R Cell Brandel Harvester (Gaithersburg, MD). Subsequently, filters were washed for 5 seconds with ice cold buffer (50 mM Tris HCl, pH=7.4 at 4°C), dried and placed into vials containing 2.5 mL Readi-Safe (Beckman, Fullerton, CA) and radioactivity was measured using a Beckman LS 5000TA liquid scintillation counter. The efficiency of counting of [^3H]5-HT averaged between 45-50%. Binding data was analyzed by computer-assisted nonlinear regression analysis (Accufit and Accucomp, Lunden Software, Chagrin Falls, OH).

[2] = biological target: T2, 5-HT1Dα (Homo sapiens, UniProt P28221); assay: [3H]5-HT radioligand binding to the cloned 5-HT1Dα receptor
T2 construct: expressed in transfected cells
T2 sequence (P28221 whole entry): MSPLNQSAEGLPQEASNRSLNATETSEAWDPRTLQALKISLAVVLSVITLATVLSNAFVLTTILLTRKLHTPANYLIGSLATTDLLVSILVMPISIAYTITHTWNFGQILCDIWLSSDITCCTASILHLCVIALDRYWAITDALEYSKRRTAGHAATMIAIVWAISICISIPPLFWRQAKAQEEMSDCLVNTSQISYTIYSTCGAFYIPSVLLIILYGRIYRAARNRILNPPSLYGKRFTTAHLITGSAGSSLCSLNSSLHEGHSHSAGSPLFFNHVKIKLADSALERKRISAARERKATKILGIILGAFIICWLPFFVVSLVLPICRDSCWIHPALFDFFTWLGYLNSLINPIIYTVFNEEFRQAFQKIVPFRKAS

[3] = biological target: 5-HT1Dβ (Homo sapiens, UniProt P28222); assay: [3H]5-HT radioligand binding to the cloned 5-HT1Dβ receptor
5-HT1Dβ, sequence (P28222 whole entry): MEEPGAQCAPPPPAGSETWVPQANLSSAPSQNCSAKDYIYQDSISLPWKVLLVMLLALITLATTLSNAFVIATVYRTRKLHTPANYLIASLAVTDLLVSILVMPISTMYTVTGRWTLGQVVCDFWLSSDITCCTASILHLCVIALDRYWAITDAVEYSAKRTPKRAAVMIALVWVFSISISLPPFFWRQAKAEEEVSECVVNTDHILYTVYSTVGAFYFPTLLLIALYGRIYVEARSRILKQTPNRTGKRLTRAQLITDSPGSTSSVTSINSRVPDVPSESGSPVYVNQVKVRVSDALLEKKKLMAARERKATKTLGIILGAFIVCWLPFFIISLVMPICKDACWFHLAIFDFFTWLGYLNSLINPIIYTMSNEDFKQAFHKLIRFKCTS

[4] = biological target: T3, 5-HT1E (Homo sapiens, UniProt P28566); assay: [3H]5-HT radioligand binding to the cloned 5-HT1E receptor
T3 construct: expressed in transfected cells
T3 sequence (P28566 whole entry): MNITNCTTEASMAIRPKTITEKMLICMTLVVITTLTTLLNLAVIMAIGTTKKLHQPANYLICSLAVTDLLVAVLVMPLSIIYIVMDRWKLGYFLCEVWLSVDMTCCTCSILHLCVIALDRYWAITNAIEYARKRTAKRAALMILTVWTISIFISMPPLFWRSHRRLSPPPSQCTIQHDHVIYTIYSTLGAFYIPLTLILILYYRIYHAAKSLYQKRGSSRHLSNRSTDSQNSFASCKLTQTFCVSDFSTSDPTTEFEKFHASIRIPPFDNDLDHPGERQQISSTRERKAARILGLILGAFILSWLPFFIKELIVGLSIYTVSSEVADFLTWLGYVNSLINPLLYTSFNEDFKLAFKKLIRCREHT

[5] = test system: neuronal protein extravasation; assay: Neuronal (dural) protein extravasation after electrical stimulation of the trigeminal ganglion; type: in vivo, Harlan Sprague-Dawley rats or guinea pigs; conditions: 10 minutes before trigeminal ganglion stimulation, ID50 approximated from dose-response curve, species of the table not stated (rats or guinea pigs)
Protocol: Harlan Sprague-Dawley rats (225-325 g) or guinea pigs from Charles River Laboratories (225-325 g) were anesthetized with sodium pentobarbital intraperitoneally (65 mg/kg or 45 mg/kg respectively) and placed in a stereotaxic frame (David Kopf Instruments) with the incisor bar set at -3.5 mm for rats or -4.0 mm for guinea pigs. Following a midline sagital scalp incision, two pairs of bilateral holes were drilled through the skull (6 mm posteriorly, 2.0 and 4.0 mm laterally in rats; 4 mm posteriorly and 3.2 and 5.2 mm laterally in guinea pigs, all coordinates referenced to bregma). Pairs of stainless steel stimulating electrodes (Rhodes Medical Systems, Inc.) were lowered through the holes in both hemispheres to a depth of 9 mm (rats) or 10.5 mm (guinea pigs) from dura.
The femoral vein was exposed and a dose of the test compound was injected intravenously (1 mL/kg). Approximately 7 minutes later, a 50 mg/kg dose of Evans Blue, a fluorescent dye, was also injected intravenously. The Evans Blue complexed with proteins in the blood and functioned as a marker for protein extravasation. […]
A fluorescence microscope (Zeiss) equipped with a grating monochromator and a spectrophotometer was used to quantify the amount of Evans Blue dye in each sample. An excitation wavelength of approximately 535 nm was utilized and the emission intensity at 600 nm was determined. […] This facilitated the computer-controlled movement of the stage with fluorescence measurements at 25 points (500 µm steps) on each dural sample. The mean and standard deviation of the measurements was determined by the computer.
The extravasation induced by the electrical stimulation of the trigeminal ganglion was an ipsilateral effect (i.e. occurs only on the side of the dura in which the trigeminal ganglion was stimulated). […] The ratio of the amount of extravasation in the dura from the stimulated side compared to the unstimulated side dura was calculated. […]

[6] = cloned receptor, [3H]5-HT displacement, 37°C

SMILES	Ki [1, 6] [nM]	Ki [2] [nM]	Ki [3] [nM]	Ki [4, 6] [nM]	Inhibition of Protein Extravasation i.v. ID50 [5] [mmol/kg]	Ki [1] [nM]	Ki [4] [nM]	Ki [2, 6] [nM]	Ki [3, 6] [nM]
CN(C)C1CCc2[nH]c3ccc(O)cc3c2C1 (stereo not shown) [Compound V, 6-hydroxy-3-dimethylamino-1,2,3,4-tetrahydrocarbazole]	10.3	791	1680	73.6	8.7e-09				
CCN(CC)C1CCc2cccc(Cl)c2C1 (stereo not shown) [Compound IV, 8-chloro-2-diethylamino-1,2,3,4-tetrahydronaphthalene hydrochloride]		13.5	145			129	813		
O=C(O)C(=O)O.Oc1ccc2[nH]cc(C3CCNCC3)c2c1 [Compound III, 5-hydroxy-3-(4-piperidinyl)-1H-indole oxalate]		163	196		8.9e-09	22	3.9		
Cn1cc(CCN2CCC(c3c[nH]c4ccc(F)cc34)CC2)cn1 [Compound II, 5-fluoro-3-<1-<2-<1-methyl-1H-pyrazol-4-yl>ethyl>-4-piperidinyl>-1H-indole hydrochloride]	2.5			50.3	8.6e-10			21.7	53.6
